Laboratory results taken from article PMC3083979 (Pharmaceutical research, 2009).
Like-named read-outs stand apart in the source and are kept apart here. Each block holds one compound with its values, some of them ahead of it.

Legend:
[1] = tested on: perfused livers from Mrp2-deficient TR^− rats; experiment: In situ single-pass liver perfusion; format: in vivo, rat; details: GF120918 coadministration
[2] = tested on: human sandwich-cultured hepatocytes (SCH); details: for Accumulation Cells / Accumulation Cells + Bile / BEI: + 2 µM GF120918, 1 µM [3H]digoxin 10 min or 5 µM fexofenadine 30 min
[3] = tested on: rat isolated perfused livers; details: P-gp inhibitor erythromycin, ref [43]; cited from earlier work
[4] = tested on: human OATP1B1; details: bosentan 100 µM, competitive, transfected CHO cells; ref [45]; cited from earlier work
[5] = tested on: human OATP1B3; details: bosentan 100 µM, competitive, transfected CHO cells; ref [45]; cited from earlier work
[6] = tested on: human OATP2B1; details: bosentan 100 µM, competitive, transfected CHO cells; ref [45]; cited from earlier work

Fexofenadine Cl’biliary as % of control [1]: 27.5 % of control | Effect on fexofenadine BEI and in vitro biliary clearance ([2]; 2 µM GF120918, human SCH): not affected | Effect on BEI and in vitro biliary clearance of [3H]digoxin ([2]; 2 µM GF120918, human SCH, both livers): abolished completely
Compound: COc1cc2c(cc1OC)CN(CCc1ccc(NC(=O)c3cccc4c(=O)c5cccc(OC)c5[nH]c34)cc1)CC2 [GF120918, N-(4-[2-(1,2,3,4-tetrahydro-6,7-dimethoxy-2-isoquinolinyl)ethyl]-phenyl)-9,10-dihydro-5-methoxy-9-oxo-4-acridine carboxamide]

Compound: CC[C@H]1OC(=O)[C@H](C)[C@@H](O[C@H]2C[C@@](C)(OC)[C@@H](O)[C@H](C)O2)[C@H](C)[C@@H](O[C@@H]2O[C@H](C)C[C@H](N(C)C)[C@H]2O)[C@](C)(O)C[C@@H](C)C(=O)[C@H](C)[C@@H](O)[C@]1(C)O [erythromycin]
Effect on cumulative recovery of fexofenadine in bile [3]: decreased

Accumulation Cells ([2]; Liver 1): 29.9 ± 1.6 pmol/mg | Accumulation Cells + Bile ([2]; Liver 1): 26.2 ± 0.9 pmol/mg | BEI ([2]; Liver 1): 0% | Accumulation Cells ([2]; Liver 1, listed as [^3H]digoxin): 29.9 pmol/mg | Accumulation Cells ([2]; Liver 2): 25.2 ± 1.6 pmol/mg | Accumulation Cells + Bile ([2]; Liver 2): 23.4 ± 2.3 pmol/mg | BEI ([2]; Liver 2): 0%
Compound: C[C@H]1O[C@@H](O[C@H]2[C@@H](O)C[C@H](O[C@H]3[C@@H](O)C[C@H](O[C@H]4CC[C@@]5(C)[C@H](CC[C@@H]6[C@@H]5C[C@@H](O)[C@]5(C)[C@@H](C7=CC(=O)OC7)CC[C@]65O)C4)O[C@@H]3C)O[C@@H]2C)C[C@H](O)[C@@H]1O [[^3H]Digoxin, digoxin]

Compound: COc1ccccc1Oc1c(NS(=O)(=O)c2ccc(C(C)(C)C)cc2)nc(-c2ncccn2)nc1OCCO [bosentan]
Inhibition of transport of model probes [4]: ~ 40% | Inhibition of transport of model probes [5]: ~ 40% | Inhibition of transport of model probes [6]: ~ 40%
